Measured values taken from patent publication US20040097565A1, “Analgesic and antiinflammatory drugs” (priority 2001, published 2004).
Marks after values point to notes of the source that are not given here.

Columns and labels:
[1] = system: carrageenin edema, right rear limb plantar part of SD strain male rats; experiment: Carrageenin edema method (antiinflammatory action); format: in vivo, rat; settings: 30 mg/kg oral, 1 hour before carrageenin, limb volume 3 hours after, relative to control
Method: Method: SD strain male rats (6 weeks old, Nihon Clea) were used at 6 animals per group. The carrageenin edema method was performed according to a method of Winter et al. (Proc. Soc. exp. Biol. Med., 111, 544-547, 1962). After a volume of a right rear limb plantar part was measured, a specimen [compound A: 2-ethoxy-1-[[2′-(5-oxo-2,5-dihydro-1,2,4-oxadiazol-3-yl)biphenyl-4-yl]methyl]-1H benzimidazole-7-carboxylic acid] was orally administered (1 ml/100 g), and water was additionally added to a total amount of 5 ml/rat. After one hour, 0.05 ml of a 1% carrageenin physiological saline solution was subcutaneously injected to induce edema. Whereby, a volume of a right rear limb plantar part was measured after 3 hours. The effect of a specimen was obtained by a difference of a limb volume between before carrageenin injection and after 3 hours, and calculating an inhibition rate (%) relative to a control group.

[2] = system: acetic acid writhing in ICR strain male mice; experiment: Acetic acid writhing method (analgesic action); format: in vivo, mouse; settings: 30 mg/kg oral, 30 minutes before 0.6% acetic acid i.p., counted for 20 minutes
Method: Acetic Acid Writhing Method
Method: ICR strain male mice (5 weeks old, Nihon Clea) were used at 10 animals per group, and a specimen [compound A: 2-ethocy-1-[[2′-(5-oxo-2,5-dihydro-1,2,4-oxadiazol-3-yl)biphenyl-4-yl]methyl]-1H-benzimidazole-7-carboxylic acid] was orally administered (0.2 ml/10 g). After 30 minutes, a 0.6% acetic acid solution was intraperitoneally injected (0.1 ml/10 g) and, immediately, mice were placed into a transparent acryl resin observation cage, a time of writhing and stretching induced for 20 minutes therefrom was counted, and an inhibition rate (%) was calculated from average times of a control group and a specimen administration group.

[3] = system: pain threshold at right rear limb plantar part of SHRSP strain male rats; experiment: Pain threshold improving action in SHRSP rat (Randall & Selitto's method); format: in vivo; settings: for Pain threshold (g) before administration of compound A: baseline before oral administration
Method: Pain Threshold Improving Action in SHRSP Rat (Easily Cerebral Apoplexy Developing Spontaneous Hypertension Rat)
SHRSP strain male rats (27 weeks old, Nihon Clea, 6 animals per group) were used. […] Measurement of a pain threshold value was performed according to a Randall & Selitto's method (Arch. Int. Pharmacodyn. Ther. 111, 409-419, 1957). Immediately after therefrom, a compound A [2-ethoxy-1-[[2′-(5-oxo-2,5-dihydro-1,2,4-oxadoazol-3-yl)biphenyl-4-yl]methyl]-1H-benzimidazole-7-carboxylic acid] was orally administered (0.5 ml/100 g, b.w.) and, one hour after, a pain threshold value was measured. Only a solvent was orally administered to a control group. Regarding the effect of a specimen, drug efficacy assessment was performed by threshold pressure of a control group and a specimen administration group.

SMILES: CCOc1nc2cccc(C(=O)O)c2n1Cc1ccc(-c2ccccc2-c2nc(=O)o[nH]2)cc1 [Compound A, 2-Ethoxy-1-[[2′-(5-oxo-2,5-dihydro-1,2,4-oxadiazol-3-yl)biphenyl-4-yl]methyl]-1H-benzimidazole-7-carboxylic acid]
- Inhibition rate (%) of carrageenin edema [1]: 34* %
- Inhibition rate (%) of writhing and stretching [2]: 52* %
- Pain threshold (g) before administration of compound A ([3]; 1 mg/kg group): 210 g
- Pain threshold (g) 1 hour after administration of compound A ([3]; 1 mg/kg oral): 277* g
- Pain threshold (g) before administration of compound A ([3]; 3 mg/kg group): 213 g
- Pain threshold (g) 1 hour after administration of compound A ([3]; 3 mg/kg oral): 352* g
- Pain threshold (g) before administration of compound A ([3]; 10 mg/kg group): 212 g
- Pain threshold (g) 1 hour after administration of compound A ([3]; 10 mg/kg oral): 430* g
- Pain threshold (g) before administration of compound A ([3]; 30 mg/kg group): 214 g
- Pain threshold (g) 1 hour after administration of compound A ([3]; 30 mg/kg oral): 470* g
